From publication PMC7139549, “TLD1433 Photosensitizer Inhibits Conjunctival Melanoma Cells in Zebrafish Ectopic and Orthotopic Tumour Models” (Cancers, 2020) come the findings set out here.

Where two headings read alike, the source gives them in different places.

As a reminder, the EC50 is the concentration needed to bring the measured effect to its halfway point.

The test system of experiment [1] is CRMM1 conjunctival melanoma cell line. The experiment can be described thus: SRB cell viability assay, CRMM1. It counts as cell-based, Human. As for the experimental part:
TLD1433 is known to generate reactive oxygen species (ROS) with high quantum efficacy in many cancer cell lines. However, there is no report of the in vitro toxicity of this compound in eye melanoma (UM) cell lines. We determined the cell viability of three conjunctival melanoma cell lines (CRMM1, CRMM2 and CM2005.1), and three uveal melanoma cell lines (OMM1, OMM2.5, MEL270) in the presence of TLD1433, both in the dark or under green light irradiation (21 mW/cm^2, 19 J/cm^2, 520 nm, 15 min), and compared this viability to epidermoid carcinoma A431 and cutaneous melanoma A375 cell lines under the same conditions. The protocol used was based on previous work from the Bonnet group, and differed slightly from recommendations from McFarland et al.. […] The effective concentration (EC50) values, i.e., the concentration required to reduce cell viability by 50% compared to untreated wells, were assessed by fitting the dose-response curves with a Hill equation. The phototoxicity index (PI), defined as the ratio of the dark EC50 to the light EC50, was also calculated and represents the amplification of TLD1433 activity with a light trigger. […]
Figure 2 Cell viability after TLD1433 treatment of eight tumour cell lines (CRMM1, CRMM2, CM2005.1, OMM1, OMM2.5, MEL270, A431, A375). […] The absorbance of Sulforhodamine B in solution was measured at 520 nm. […]
At day 0, cells were detached using 1mL of trypsin, resuspended in 4 mL of media and transferred to a 15 mL corning falcon tube. Cells were counted using trypan blue and BioRad® TC20™ automated cell counter (Figure 11). Dilutions of 6000 (CRMM1), 6000 (CRMM2), 8000 (CM2005.1), 6000 (OMM1), 6000 (OMM2.5), 6000 (MEL270) 8000 (A431), and 4000 (A375) cells/well were calculated from each cell suspension at a final volume of 6 mL using the following formula: Vc=(Vt×10C)/Lc where Vt = total volume of solution, C = number of cells per well/per 100 μL and Lc = live cells count (cells/mL). […] Next day, the dye was dissolved using Tri-base (0.25%) and absorbance of SRB at 510 nm was recorded from each well using a Tecan plate reader. […]

The test system of experiment [2] is eye melanoma cells. As to the kind of experiment: SRB cell viability assay, eye melanoma cells. It counts as cell-based, Human. As for the experimental part: TLD1433 is known to generate reactive oxygen species (ROS) with high quantum efficacy in many cancer cell lines. However, there is no report of the in vitro toxicity of this compound in eye melanoma (UM) cell lines. We determined the cell viability of three conjunctival melanoma cell lines (CRMM1, CRMM2 and CM2005.1), and three uveal melanoma cell lines (OMM1, OMM2.5, MEL270) in the presence of TLD1433, both in the dark or under green light irradiation (21 mW/cm^2, 19 J/cm^2, 520 nm, 15 min), and compared this viability to epidermoid carcinoma A431 and cutaneous melanoma A375 cell lines under the same conditions. […] The phototoxicity index (PI), defined as the ratio of the dark EC50 to the light EC50, was also calculated and represents the amplification of TLD1433 activity with a light trigger. […]
At day 0, cells were detached using 1mL of trypsin, resuspended in 4 mL of media and transferred to a 15 mL corning falcon tube. Cells were counted using trypan blue and BioRad® TC20™ automated cell counter (Figure 11). Dilutions of 6000 (CRMM1), 6000 (CRMM2), 8000 (CM2005.1), 6000 (OMM1), 6000 (OMM2.5), 6000 (MEL270) 8000 (A431), and 4000 (A375) cells/well were calculated from each cell suspension at a final volume of 6 mL using the following formula: Vc=(Vt×10C)/Lc where Vt = total volume of solution, C = number of cells per well/per 100 μL and Lc = live cells count (cells/mL). […]

Consider `Cc1ccnc(-c2cc(C)ccn2)c1.Cc1ccnc(-c2cc(C)ccn2)c1.[Cl-].[Cl-].[Ru+2].c1csc(-c2ccc(-c3ccc(-c4nc5c6cccnc6c6ncccc6c5[nH]4)s3)s2)c1` [TLD1433], for which the EC50 in experiment [1] (CRMM1, dark, 24 h treatment, SRB, read-out: EC50, dark) was 840 nM; in experiment [1] (CRMM1, green light 520 nm, 15 min, 21 mW/cm^2, 19 J.cm^−2, DLI 24 h, read-out: EC50,light), 5.9 nM; in experiment [2] (dark, read-out: EC50 (dark toxicity)) it was ~1000 nM. For the same compound, the “PI (photo index)” value in experiment [1] (CRMM1, ratio of dark and light EC50, 19 J.cm^−2 green light) amounted to 140. Further, the “EC50 upon light activation (in words)” value in experiment [2] (green light 19 J/cm^2) was “in the nanomolar regime”.
